# Results: patent publication US5773569A (Affymax Technologies N.V., priority 1995, dated 1998)
# Legend:
# murine bone marrow cells = experiment: Colony assay, murine bone marrow; type: cell-based; conditions: EPO
# Procedure: (§1) G. Colony Assay: Murine Bone Marrow and Human Peripheml Blood Colony Assay
# (§2) A ten milliliter sample of peripheral blood was obtained from a healthy individual in a standard sterile heparin vacutainer tube. Murine bone marrow was obtained from the femurs of approximately 10 mice per experiment. All reagents were obtained from Stem Cell Technologies Inc. (Vancouver, Canada).
# (§3) a. Experimental Protocol: Briefly, a nucleated cell count was performed to establish the number and concentration of nucleated cells in the original sample. In the case of peripheral blood, the sample is subjected to centrifugation through a Ficoll-Hypaque (1.077 g per ml) gradient at 400 g for 30 minutes at room temperature. Mononuclear cells at the interface of the Ficoll-Hypaque solution are carefully removed and diluted to a total volume of about 10 ml. The cells obtained from murine bone marrow or human peripheral blood were collected by centrifugation and the supernatant was decanted. The pelleted cells were resuspended in fresh medium and subjected to collection as described above. The washed cells were diluted in Iscove's medium/2% fetal bovine serum to the following concentration for plating:
# Normal marrow: 1×10^5 light density cells
# (§4) Cells were added to methyl cellulose per directions of the manufacturer. […] Equivalent cell numbers were plated in "Complete" methylcellulose medium to assess maximal colony formation. A control plate was run with each assay minus EPO and peptide to determine background colony formation. Colonies were scored after both 10 days and 18 days of incubation.
# [1] = tested on: polycythemic exhypoxic mice (59Fe incorporation); experiment: Polycythemic exhypoxic mouse bioassay; type: in vivo; conditions: subcutaneous
# Procedure: J. Polycythemic Exhypoxic Mouse Bioassay
# Female BDF1 mice (18-20 gms) are subjected to a conditioning cycle (in hypobaric chambers) of 18 hrs. at 0.40±0.02 atm. and 6 hrs. at ambient pressure for a period of 14 days.
# Mice are maintained at ambient pressure for 72 hrs prior to administration of r-HuEPO or test samples. Test samples or r-HuEPO standard are diluted for injection into conditioned mice. The vehicle consists of: PBS containing 0.1% BSA (w/v). For each dilution, 0.5 ml is administered subcutaneously into each of 10 mice. ^59 Fe is administered 48 hrs. later. Blood samples are taken 48 hrs. following administration of ^59 Fe. Hematocrits and radioactivity measurements are determined for each sample. Dose range and results (two different assays) are set forth in Table 22 and FIGS. 17A-17C, infra.
# FDCP-1/muER cells = experiment: Peptide-induced initiation of cell cycle measured by DNA content; type: cell-based, murine; conditions: 10 U/ml; ten hours postinduction; medium control 15%
# Procedure: F. Cellular response kinetics: Peptide-Induced Initiation of Cell Cycle Measured By DNA Content
# 1. Experimental Protocol: FDCP-1/muER cells were grown to stationery phase ≈3.0×10^6 cells/ml. […] Three million cells were collected at the following time points: 0, 6, 8, 10, and 12 hr. (see, FIG. 15). Cells were washed twice in cold PBS and fixed by resuspending the cell pellet in 100 μl of cold PBS followed by 900 μl of cold 70% ethanol. Cells were stained with 50 μg/ml of propidium iodine and fluorescence was measured on FACS Scan Flow cytometer. The percentage of cells in each phase was measured using the SOBR model of CelIFIT software, by Becton Dickinson.
# [2] = tested on: human peripheral blood mononuclear cells; experiment: Colony assay on a human peripheral blood specimen; type: cell-based
# Procedure: as §1, §2, §3
# Normal blood: 4×10^5 light density cells
# as §4
# [3] = scored 2/23/94, EPO (METHOCULT)
substance,measurement,setting,value
"EPO: Erythropoietin, glycoprotein hormone with 165 amino acids; recombinant standard",BFU-E colony-forming cell numbers,"murine bone marrow cells; Table 14 (1/28/94), 2/10/94",5
same,CFU-E colony-forming cell numbers,"murine bone marrow cells; Table 14 (1/28/94), 2/10/94",23
same,CFU-GM colony-forming cell numbers,"murine bone marrow cells; Table 14 (1/28/94), 2/10/94",3
same,BFU-E colony-forming cell numbers,"murine bone marrow cells; Table 14 (1/28/94), 2/21/94",30
same,CFU-E colony-forming cell numbers,"murine bone marrow cells; Table 14 (1/28/94), 2/21/94",0
same,CFU-GM colony-forming cell numbers,"murine bone marrow cells; Table 14 (1/28/94), 2/21/94",3
same,BFU-E colony-forming cell numbers,"murine bone marrow cells; Table 15 (2/21/94), 3/1/94",3
same,CFU-E colony-forming cell numbers,"murine bone marrow cells; Table 15 (2/21/94), 3/1/94",3
same,CFU-GM colony-forming cell numbers,"murine bone marrow cells; Table 15 (2/21/94), 3/1/94",> 10
same,CFU-E colony-forming cell numbers,"murine bone marrow cells; Table 15 (2/21/94), 3/14/94",0
same,CFU-GM colony-forming cell numbers,"murine bone marrow cells; Table 15 (2/21/94), 3/14/94",26
same,MBFU-E colony-forming cell numbers,"murine bone marrow cells; Table 15 (2/21/94), 3/14/94",0
same,PBFU-E colony-forming cell numbers,"murine bone marrow cells; Table 15 (2/21/94), 3/14/94",10
same,LOG MEAN,[1]; dose 0.025 U,1.65
same,LOG MEAN,[1]; dose 0.050 U,2.74
same,LOG MEAN,[1]; dose 0.100 U,3.28
same,cells in S phase,FDCP-1/muER cells,approximately 45%
same,CFU-E,"[2]; scored 2/23/94, 3 U/ml",7
same,MBFU-E,"[2]; scored 2/23/94, 3 U/ml",7
same,CFU-E,[2]; [3],11
same,MBFU-E,[2]; [3],25
same,CFU-E,"[2]; scored 3/4/94, 3 U/ml",4
same,CFU-GM,"[2]; scored 3/4/94, 3 U/ml",3
same,MBFU-E,"[2]; scored 3/4/94, 3 U/ml",7
same,PBFU-E,"[2]; scored 3/4/94, 3 U/ml",7
same,CFU-E,"[2]; scored 3/4/94, EPO (METHOCULT)",1
same,CFU-GM,"[2]; scored 3/4/94, EPO (METHOCULT)",9
same,MBFU-E,"[2]; scored 3/4/94, EPO (METHOCULT)",11
same,PBFU-E,"[2]; scored 3/4/94, EPO (METHOCULT)",13
